Assay results from patent US5428031A, “Methods of treating cardiac arrhythmia” (priority 1993, dated 1995).

Experiments:
[1] = system: IK1 (inward rectifier K+ current); test: voltage clamp measurement of IK1 block in isolated guinea pig ventricular myocytes; assay type: cell-based; conditions: 1 μM
Procedure: (§1) Guinea pig ventricular myocytes were isolated using a modification of the procedure described by Mitra R and Morad M., "A Uniform Enzymatic Method for Dissociation of Myocytes from Hearts and Stomachs of Nertilorates", Am. J. Physiol. 249:H1056-60 (1985). Excised hearts were perfused through the aorta (retrograde fashion) at a rate of 10 ml/min with oxygenated, warmed (37° C.) solutions described below. The heart was initially perfused for 7 minutes with a Tyrode's solution containing, in mM: 132 NaCl, 4 KCl, 1.2 MgCl2, 10 HEPES (formal name N-2-Hydroxyethylpiperazine-N-2-ethanesulfonic acid), 5 glucose, pH=7.2. The head was then perfused with the same nominally Ca^2+ -free solution containing 150 units/ml Type II collagenase (Worthington) and 0.5 units/ml Type XIV protease (Sigma) for 8 minutes. This perfusate was followed by a Tyrode's solution containing 0.2 mM CaCl2 (without enzymes) for 5 minutes. The digested ventricles were cut into small pieces and gently shaken until cells were visibly dispersed. […]
(§2) The suction microelectrode technique described by Giles, W. R. and Shibata, E. F., "Voltage clamp of bull-frog cardiac pacemaker cells: a quantitative, analysis of potassium currents". […]
(§3) To record K^+ currents, the cells were bathed in a Ca^2+ -free Tyrode's :solution containing […] nisoldipine. […] Data was analyzed as % block from control membrane currents. […]

ICa (Ca2+ current) = test: voltage clamp measurement of Ca2+ current in isolated guinea pig ventricular myocytes; assay type: cell-based; conditions: 0.1 μM
Procedure: as §1, §2, §3

[2] = system: guinea pig ventricular myocytes; test: current-clamp action potential duration (APD90) in isolated myocytes, 0.2 Hz; assay type: cell-based; conditions: Cavia porcellus, Ventricular myocyte, 4 cells
Procedure: as §1, §2
To record action potentials, single cells were bathed in 1.8 mM Ca^2+ -Tyrode's solution. […] Data were analyzed as percent (%) change in action potential duration at 90% of repolarization (APD90). […]

anesthetized dogs = test: frequency-dependent effects on cardiac (ventricular) refractory period in anesthetized dogs; assay type: in vivo, dog; conditions: 1.0 mg/kg i.v.
Procedure: Purpose-bred male or female mongrel dogs (9.8-10.8 kg) were anesthetized with alpha chloralose (80-100 mg/kg i.v.), and the animals were ventilated using a volume-cycled respirator. The right femoral artery and vein were isolated and cannulated for the measurement of systemic arterial pressure and for test agent administration, respectively. A right thoracotomy was performed in the 4th intercostal space, the pericardium incised, and the heart suspended in a pericardial cradle. One stainless steel bipolar plunge electrode was sutured to the ,anterior surface of the right ventricle for the determination of ventricular excitation threshold and refractory periods, while a second stainless steel bipolar plunge electrode was sutured to the right ventricular apex for ventricular pacing. A 21 gauge stainless steel hypodermic needle attached to a 1 ml syringe containing 40% formaldehyde was introduced into the right atrium via a stab wound and purse-string suture. The atrioventricular (AV) node was identified and then chemically ablated with formaldehyde using the method of Steiner and Kovalik (Steiner C. and Kovalik A. T. W., "A simple technique for production of chronic complete heart block in dogs", J. Appl. Physiol. 25: 631-632:, 1968). After the ablation of the AV node, heart rate was controlled and maintained at either 60 or 150 beats/min, as dictated by the experimental protocol, by ventricular apical pacing. Limb electrodes were attached for the continuous recording of Lead II electrocardiogram.
Ventricular excitation threshold (ET) and relative refractory periods (RRPs) were determined alternately at heart rates of 60 and 150 beats/min using an extrastimulus technique described previously (Wallace A. A. et. al., "Cardiac electrophysiologic and inotropic actions of new and potent methanesulfonanilide Class III antiarrhythmic agents in the anesthetized dog". J. Cardiovasc. Pharmacol. 18: 687-695, 1991). Ventricular excitation threshold was defined as the minimum current required to evoke a propagated response for a ventricular extrastimulus introduced at a coupling interval of 250-300 msec after a basic ventricular apical beat. The ventricular relative refractory period was defined as the longest coupling interval failing to elicit a propagated response for a ventricular extrastimulus introduced with a current intensity of 2× the ventricular excitation threshold. Multiple alternating baseline 60 and 150 beat/min RRPs were measured in each preparation, with two-to-three stable consecutive baseline RRP determinations required prior to administration of the test agent.
The compound of Example 26 was administered intravenously at a dosage of 1.0 mg/kg over a period of 5 minutes to a group of 5 anesthetized dogs. The compound of Example 26 was infused in a vehicle of 2% cremophor/2% ethanol/96% saline, at a test agent concentration of 0.5 mg/ml. Ventricular RRPs at 60 and 150 beats/min were redetermined immediately, 15 and 30 minutes following the intravenous administration of the compound of Example 26. The frequency-dependence of the activity of the compound of Example 26 was assessed by comparing absolute increases in ventricular RRPs from the final corresponding baseline value determined at slower (60 beat/min) vs faster (150 beat/min) heart rates.

| SMILES | effect on IK1 [1] | effect on ICa (ICa (Ca2+ current)) | percent increase in APD90 at 5 µM [2] [%] | Increase in Ventricular Relative Refractory Period above baseline (anesthetized dogs; 60 beat/min, 15 Min) [ms] | Increase in Ventricular Relative Refractory Period above baseline (anesthetized dogs; 60 beat/min, 30 Min) [ms] | Increase in Ventricular Relative Refractory Period above baseline (anesthetized dogs; 60 beat/min, Immediate) [ms] | Increase in Ventricular Relative Refractory Period above baseline (anesthetized dogs; 150 beat/min, 15 Min) [ms] | Increase in Ventricular Relative Refractory Period above baseline (anesthetized dogs; 150 beat/min, 30 Min) [ms] | Increase in Ventricular Relative Refractory Period above baseline (anesthetized dogs; 150 beat/min, Immediate) [ms] | frequency dependence of increase in ventricular RRP (anesthetized dogs; 60 and 150 beat/min) |
| --- | --- | --- | --- | --- | --- | --- | --- | --- | --- | --- |
| Cc1cccc(NC(=O)N[C@@H]2N=C(c3ccccc3)c3ccccc3N(C)C2=O)c1 [Compound 4, (R)-N-(2,3-dihydro-1-methyl-2-oxo-5-phenyl-1H-1,4-benzodiazepin-3-yl)-N'-(3-methylphenyl)urea] | Little or no effect | Little or no effect | 202 |  |  |  |  |  |  |  |
| CN1C(=O)[C@H](NC(=O)/C=C/c2ccc(Cl)cc2Cl)N=C(c2ccccc2)c2ccccc21 [Example 26, E-(+)-N-[(3R)-2,3-Dihydro-1-methyl-2-oxo-5-phenyl-1H-1,4-benzo-diazepin-3-yl]-3-(2,4-dichlorophenyl)-2-propenamide] |  |  |  | 19.2 ± 3.4 | 14.0 ± 2.3 | 29.6 ± 4.4 | 15.6 ± 4.1 | 11.4 ± 4.4 | 23.2 ± 7.3 | Equivalent increases in the ventricular RRPs |
